# Assay results taken from patent US8604024B2, “Compounds for the reduction of beta-amyloid production” (Bristol-Myers Squibb Company, priority 2011, dated 2013).
# Counter-ions that a name gives are not always drawn.
# Test system: Aβ1-42 production in H4 cells stably transfected with APP751 containing the Swedish mutation
# Assay: Cellular assay for inhibition of Aβ1-42 production (H4 APP751 SWE clone 8.20)
# Assay type: cell-based
# Details: 19 h, H4 APP751 SWE clone 8.20 cells, 19 h incubation; read-out: Aβ42 cellular IC50
# Description: Cellular Assays for Inhibition of Aβ1-40 and Aβ1-42 Production
# H4 cells stably transfected with APP751 containing the Swedish mutation (H4 APP751 SWE clone 8.20, developed at BMS) were maintained in log phase through twice weekly passage at a 1:20 split. […] Following incubation for 19 h in 5% CO2 at 37° C., plates were briefly centrifuged (1000 rpm, 5 min). A 10 μl aliquot from each well was transferred to a second assay plate (Costar 3709) for Aβ40 measurements. Antibody cocktails were freshly prepared by dilution into 40 mM Tris-HCl (pH 7.4) with 0.2% BSA and added to assay plates. For Aβ42 measurements, antibodies specific for the Aβ42 neoepitope (565, developed at BMS; conjugated to the Wallac reagent (Perkin Elmer)) and the N-terminal sequence of Aβ peptide (26D6, developed at SIBIA; conjugated to APC (Perkin Elmer)) were mixed and 20 μl of the mixture was added to each well of the incubated cell plate yielding a final concentration of 0.8 ng/well 565 and 75 ng/well 26D6. For the Aβ40 measurements, antibodies specific for the Aβ40 neoepitope (TSD, developed at BMS; conjugated to the Wallac reagent (Perkin Elmer)) and 26D6 as described above were mixed and 20 μl of the mixture was added to the 10 μl aliquots which had been removed previously from the cell plate yielding a final concentration of 1.6 ng/well TSD and 17.5 ng/well 26D6. Assay plates containing antibodies were sealed with aluminum foil and incubated overnight at 4° C. Signal was determined using a Viewlux counter (Perkin Elmer) and IC50 values determined using curve fitting in CurveMaster (Excel Fit based).
row,IC50,SMILES
1,2700 nM,"C[C@]12N=C(N)SC[C@H]1CCCc1cc(F)c(-c3cncnc3)cc12 (relative stereo) [Example 47, rel-(4aS,11bS)-9-fluoro-11b-methyl-10-(pyrimidin-5-yl)-4,4a,5,6,7,11b-hexahydrobenzo[6,7]cyclohepta[1,2-d][1,3]thiazin-2-amine, bis(2,2,2-trifluoroacetate)]"
2,8500 nM,"Cc1ncc(-c2ccc3c(c2)[C@@]2(C)N=C(N)SC[C@H]2CCO3)s1 (relative stereo) [Example 26, rel-(4aS,11bS)-11b-Methyl-10-(2-methylthiazol-5-yl)-4a,5,6,11b-tetrahydro-4H-benzo[2,3]oxepino[4,5-d][1,3]thiazin-2-amine, 2,2,2-trifluoroacetate salt]"
3,28 nM,"C[C@]12N=C(N)SC[C@H]1CCOc1ccc(NC(=O)c3ccc(C#N)cn3)cc12 (relative stereo) [Example 35, rel-N-((4aS,11bS)-2-Amino-11b-methyl-4a,5,6,11b-tetrahydro-4H-benzo[2,3]oxepino[4,5-d][1,3]thiazin-10-yl)-5-cyanopicolinamide, 2,2,2-trifluoroacetate salt]"
4,27 nM,"C[C@]12N=C(N)SC[C@H]1CCCc1ccc(NC(=O)c3ccc(OC(F)F)cn3)cc12 [Example 46a, N-((4aS,11bS)-2-Amino-11b-methyl-4,4a,5,6,7,11b-hexahydrobenzo[6,7]cyclohepta[1,2-d][1,3]thiazin-10-yl)-5-(difluoromethoxy)picolinamide]"
5,16000 nM,"C[C@]12N=C(N)SC[C@H]1CCOc1ccc(Nc3nccc4ccccc34)cc12 (relative stereo) [Example 41, rel-(4aS,11bS)—N10-(Isoquinolin-1-yl)-11b-methyl-4a,5,6,11b-tetrahydro-4H-benzo[2,3]oxepino[4,5-d][1,3]thiazine-2,10-diamine, bis(2,2,2-trifluoroacetate)]"
6,7.2 nM,"C[C@]12N=C(N)SC[C@H]1CCCc1ccc(NC(=O)c3ncc(Cl)cc3Cl)cc12 [Example 45a, N-((4aS,11bS)-2-Amino-11b-methyl-4,4a,5,6,7,11b-hexahydrobenzo[6,7]cyclohepta[1,2-d][1,3]thiazin-10-yl)-3,5-dichloropicolinamide]"
7,1900 nM,"NC1=N[C@@H]2c3cc(-c4cncnc4)ccc3CCC[C@@H]2CS1 [Example 1a, (4aS,11bS)-10-Pyrimidin-5-yl-4,4a,5,6,7,11b-hexahydro-3-thia-1-aza-dibenzo[a,c]cyclohepten-2-ylamine]"
8,11000 nM,"C[C@]12N=C(N)SC[C@H]1CCOc1ccc(-n3cccn3)cc12 (relative stereo) [Example 32, rel-(4aS,11bS)-11b-Methyl-10-(1H-pyrazol-1-yl)-4a,5,6,11b-tetrahydro-4H-benzo[2,3]oxepino[4,5-d][1,3]thiazin-2-amine, 2,2,2-trifluoroacetate]"
9,6.9 nM,"C[C@]12N=C(N)SC[C@H]1CCOc1ccc(NC(=O)c3ncc(Cl)cc3Cl)cc12 [Example 34a, N-((4aS,11bS)-2-Amino-11b-methyl-4a,5,6,11b-tetrahydro-4H-benzo[2,3]oxepino[4,5-d][1,3]thiazin-10-yl)-3,5-dichloropicolinamide]"
10,3200 nM,"C[C@]12N=C(N)SC[C@H]1COc1cc(F)c(-c3cncnc3)cc12 (relative stereo) [Example 17, rel-(4aR,10bS)-8-Fluoro-10b-methyl-9-(pyrimidin-5-yl)-4,4a,5,10b-tetrahydrochromeno[4,3-d][1,3]thiazin-2-amine, bis(2,2,2-trifluoroacetate)]"
11,34 nM,"C[C@]12N=C(N)SC[C@H]1CCCc1ccc(NC(=O)c3ccc(Cl)cn3)cc12 (relative stereo) [Example 3, 5-Chloro-pyridine-2-carboxylic acid (rel-(4aS,11bS)-2-amino-11b-methyl-4,4a,5,6,7,11b-hexahydro-3-thia-1-aza-dibenzo[a,c]cyclohepten-10-yl)-amide, 2,2,2-trifluoroacetate]"
12,18000 nM,"C[C@]12N=C(N)SC[C@H]1CCOc1ccc(-c3cnoc3)cc12 (relative stereo) [Example 25, rel-(4aS,11bS)-10-(Isoxazol-4-yl)-11b-methyl-4a,5,6,11b-tetrahydro-4H-benzo[2,3]oxepino[4,5-d][1,3]thiazin-2-amine, 2,2,2-trifluoroacetate salt]"
13,790 nM,"C[C@@]12N=C(N)SC[C@@H]1CCOc1ccc(NC(=O)c3ncc(Cl)cc3Cl)cc12 [Example 34b, N-((4aR,11bR)-2-Amino-11b-methyl-4a,5,6,11b-tetrahydro-4H-benzo[2,3]oxepino[4,5-d][1,3]thiazin-10-yl)-3,5-dichloropicolinamide]"
14,1400 nM,"CC#Cc1cncc(-c2ccc3c(c2)[C@@]2(C)N=C(N)SC[C@H]2CCO3)c1 [Example 22b, (4aS,11bS)-11b-Methyl-10-(5-(prop-1-yn-1-yl)pyridin-3-yl)-4a,5,6,11b-tetrahydro-4H-benzo[2,3]oxepino[4,5-d][1,3]thiazin-2-amine]"
15,3400 nM,"C[C@]12N=C(N)SC[C@H]1CCCc1ccc(-c3cncnc3)cc12 (relative stereo) [Example 2, rel-(4aS,11bS)-11b-Methyl-10-pyrimidin-5-yl-4,4a,5,6,7,11b-hexahydro-3-thia-1-aza-dibenzo[a,c]cyclohepten-2-ylamine, bis(2,2,2-trifluoroacetate)]"
16,35 nM,"C[C@]12N=C(N)SC[C@H]1CCOc1ccc(NC(=O)c3ccc(Cl)cn3)cc12 [Example 33a, N-((4aS,11bS)-2-amino-11b-methyl-4a,5,6,11b-tetrahydro-4H-benzo[2,3]oxepino[4,5-d][1,3]thiazin-10-yl)-5-chloropicolinamide]"
17,1800 nM,"CC#Cc1cncc(-c2ccc3c(c2)[C@@]2(C)N=C(N)SC[C@H]2CC3)c1 (relative stereo) [Example 21, rel-(4aS,10bS)-10b-methyl-9-(5-(prop-1-yn-1-yl)pyridin-3-yl)-4,5,6,10b-tetrahydro-4H-naphtho[1,2-d][1,3]thiazin-2-amine, bis(2,2,2-trifluoroacetate)]"
18,3400 nM,"COc1cncc(-c2ccc3c(c2)[C@@]2(C)N=C(N)SC[C@H]2CCC3)c1 (relative stereo) [Example 11, rel-(4aS,11bS)-10-(5-methoxypyridin-3-yl)-11b-methyl-4,4a,5,6,7,11b-hexahydrobenzo[6,7]cyclohepta[1,2-d][1,3]thiazin-2-amine, bis(2,2,2-trifluoroacetate)]"
19,1200 nM,"C[C@]12N=C(N)SC[C@H]1CCc1ccc(NC(=O)c3ccc(Cl)cn3)cc12 [Example 7b, N-((4aS,10bS)-2-Amino-10b-methyl-4a,5,6,10b-tetrahydro-4H-naphtho[1,2-d][1,3]thiazin-9-yl)-5-chloropicolinamide]"
20,34 nM,"C[C@]12N=C(N)SC[C@H]1CCOc1ccc(NC(=O)c3ccc(Cl)cn3)cc12 (relative stereo) [Example 33, rel-N-((4aS,11bS)-2-amino-11b-methyl-4a,5,6,11b-tetrahydro-4H-benzo[2,3]oxepino[4,5-d][1,3]thiazin-10-yl)-5-chloropicolinamide, 2,2,2-trifluoroacetate salt]"
21,8.8 nM,"C[C@]12N=C(N)SC[C@H]1CCCc1ccc(NC(=O)c3ccc(Cl)cn3)cc12 [Example 3a, 5-Chloro-pyridine-2-carboxylic acid ((4aS,11bS)-2-amino-11b-methyl-4,4a,5,6,7,11b-hexahydro-3-thia-1-aza-dibenzo[a,c]cyclohepten-10-yl)-amide]"
